Results from patent US10890591B2, “Methods and dose packs for monitoring medication adherence” (Synapse Biosciences, LLC, priority 2016, dated 2021).

Columns and labels:
[1] = Multiple Marker Experiment 1: saliva samples, marker concentration by LC-MS/MS; details: human, in vivo;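 also: mean across four subjects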
From the text: (§1) All other markers were obtained from commercial sources. Urine and saliva were collected prior to each day's dosing of marker confirming the presence or absence of markers before the experiment started. […] The presence of all 7 markers at day 8 would confirm that all markers were ingested in the previous 7 day one week period.
(§2) Healthy volunteers with no recent exposure to the markers who were not currently taking prescribed medications, OTC medications or vitamins and supplements were chosen. Exposure to the markers more than one month before starting the experiment was allowed and no dietary restrictions were required. Subjects were given a 7 day blister pack with markers sequenced in the order above. Subjects verbally confirmed they understood the urine and saliva collection procedures. Instructions printed on the marker blister pack instructed subjects to collect urine and saliva each morning before they took the daily dose of marker. They were also instructed to take the daily dose of marker close to the same time each day.

[2] = Multiple Marker Experiment 1: urine samples, adherent with all markers, marker concentration by LC-MS/MS; details: for Subject A, Urine Results / Subject B, Urine Results / Subject C, Urine Results / Subject D, Urine Results / Average of Urine Samples / concentration at 8 day: each marker dosed once
From the text: as §1, §2

[3] = Multiple Marker Experiment 2: urine samples, simulated non-adherence (one marker dose skipped per subject), LC-MS/MS; details: for Subject B, Urine Results / Subject C, Urine Results: collected before that day's dose; for Subject B, Urine Results / Subject C, Urine Results / concentration at 8 day: other markers dosed once; for concentration at 8 day: Urine Results, Day 8 sample
[4] = Day 1 sample, collected before that day's dose, Experiment #1, adherent with all markers
[5] = Day 2 sample, collected before that day's dose, Experiment #1, adherent with all markers
[6] = Day 3 sample, collected before that day's dose, Experiment #1, adherent with all markers
[7] = Day 4 sample, collected before that day's dose, Experiment #1, adherent with all markers
[8] = Day 5 sample, collected before that day's dose, Experiment #1, adherent with all markers
[9] = Day 6 sample, collected before that day's dose, Experiment #1, adherent with all markers
[10] = Day 7 sample, collected before that day's dose, Experiment #1, adherent with all markers
[11] = Day 8 sample, Experiment #1, adherent with all markers

CN(C)C(=O)C(CCN1CCC(O)(c2ccc(Cl)cc2)CC1)(c1ccccc1)c1ccccc1 [Loperamide]
concentration at 1 day [1]: 0 ng/mL
concentration at 2 day [1]: 0 ng/mL
concentration at 3 day [1]: 0.431 ng/mL
concentration at 4 day [1]: 0.18 ng/mL
concentration at 5 day [1]: 0.257 ng/mL
concentration at 6 day [1]: 0.112 ng/mL
concentration at 7 day [1]: 0.0922 ng/mL
concentration at 8 day [1]: 0.0265 ng/mL
Subject A, Urine Results [2, 4]: 0 ng/mL
Subject B, Urine Results [2, 4]: 0 ng/mL
Subject C, Urine Results [2, 4]: 0 ng/m
Subject D, Urine Results [2, 4]: 0 ng/m
Subject A, Urine Results [2, 5]: 0 ng/mL
Subject B, Urine Results [2, 5]: 0 ng/mL
Subject C, Urine Results [2, 5]: 0 ng/m
Subject D, Urine Results [2, 5]: 0 ng/m
Subject A, Urine Results [2, 6]: 28.4 ng/mL
Subject B, Urine Results [2, 6]: 206 ng/mL
Subject C, Urine Results [2, 6]: 75.2 ng/m
Subject D, Urine Results [2, 6]: 110 ng/m
Average of Urine Samples ([2]; Day 3 sample, collected before that day's dose, average of subjects A, B, C, D, Experiment 1): 104.9 ng/mL
Subject A, Urine Results [2, 7]: 98.4 ng/mL
Subject B, Urine Results [2, 7]: 26.8 ng/mL
Subject C, Urine Results [2, 7]: 23.7 ng/m
Subject D, Urine Results [2, 7]: 100 ng/m
Average of Urine Samples ([2]; Day 4 sample, collected before that day's dose, average of subjects A, B, C, D, Experiment 1): 62.225 ng/mL
Subject A, Urine Results [2, 8]: 31.6 ng/mL
Subject B, Urine Results [2, 8]: 6.94 ng/mL
Subject C, Urine Results [2, 8]: 7.11 ng/m
Subject D, Urine Results [2, 8]: 18.6 ng/m
Average of Urine Samples ([2]; Day 5 sample, collected before that day's dose, average of subjects A, B, C, D, Experiment 1): 16.0625 ng/mL
Subject A, Urine Results [2, 9]: 24.1 ng/mL
Subject B, Urine Results [2, 9]: 5.5 ng/mL
Subject C, Urine Results [2, 9]: 5.02 ng/m
Subject D, Urine Results [2, 9]: 6.37 ng/m
Average of Urine Samples ([2]; Day 6 sample, collected before that day's dose, average of subjects A, B, C, D, Experiment 1): 10.2475 ng/mL
Subject A, Urine Results [2, 10]: 0.035 ng/mL
Subject B, Urine Results [2, 10]: 2.33 ng/mL
Subject C, Urine Results [2, 10]: 2.41 ng/m
Subject D, Urine Results [2, 10]: 5.8 ng/m
Average of Urine Samples ([2]; Day 7 sample, collected before that day's dose, average of subjects A, B, C, D, Experiment 1): 2.644 ng/mL
Subject C, Urine Results [2, 11]: 1.89 ng/m
Subject D, Urine Results [2, 11]: 2.71 ng/m
course of urine levels relative to dosing ([2]; Experiment 1, days 1-8): zero before dosing, peaked the day after dosing and slowly decreased over time
concentration at 1 day ([2]; human, in vivo): 0 ng/mL
concentration at 2 day ([2]; human, in vivo): 0 ng/mL
concentration at 8 day ([2]; human, in vivo, Average of Urine Samples, Day 8 sample, average of subjects A, B, C, D, Experiment 1): 1.18 ng/mL
concentration at 8 day ([2]; human, in vivo, Subject A, Urine Results, Day 8 sample, Experiment #1, adherent with all markers): 0.022 ng/mL
concentration at 8 day ([2]; human, in vivo, Subject B, Urine Results, Day 8 sample, Experiment #1, adherent with all markers): 0.107 ng/mL
Subject B, Urine Results ([3]; Day 1 sample, Experiment #2, subject B skipped diphenhydramine on day 5): 0 ng/mL
Subject C, Urine Results ([3]; Day 1 sample, Experiment #2, subject C skipped Loperamide on day 2): 0 ng/mL
Subject B, Urine Results ([3]; Day 2 sample, Experiment #2, subject B skipped diphenhydramine on day 5): 0 ng/mL
Subject C, Urine Results ([3]; Day 2 sample, Experiment #2, subject C skipped Loperamide on day 2): 0 ng/mL
Subject B, Urine Results ([3]; Day 3 sample, Experiment #2, subject B skipped diphenhydramine on day 5): 209 ng/mL
Subject C, Urine Results ([3]; Day 3 sample, Experiment #2, subject C skipped Loperamide on day 2): 0 ng/mL
Subject B, Urine Results ([3]; Day 4 sample, Experiment #2, subject B skipped diphenhydramine on day 5): 101 ng/mL
Subject C, Urine Results ([3]; Day 4 sample, Experiment #2, subject C skipped Loperamide on day 2): 0 ng/mL
Subject B, Urine Results ([3]; Day 5 sample, Experiment #2, subject B skipped diphenhydramine on day 5): 32.3 ng/mL
Subject C, Urine Results ([3]; Day 5 sample, Experiment #2, subject C skipped Loperamide on day 2): 0 ng/mL
Subject B, Urine Results ([3]; Day 6 sample, Experiment #2, subject B skipped diphenhydramine on day 5): 13.8 ng/mL
Subject C, Urine Results ([3]; Day 6 sample, Experiment #2, subject C skipped Loperamide on day 2): 0 ng/mL
Subject B, Urine Results ([3]; Day 7 sample, Experiment #2, subject B skipped diphenhydramine on day 5): 12.8 ng/mL
Subject C, Urine Results ([3]; Day 7 sample, Experiment #2, subject C skipped Loperamide on day 2): 0 ng/mL
course of urine levels relative to dosing ([3]; Experiment 2, days 1-8): zero before dosing, peaked the day after dosing and slowly decreased over time
concentration at 1 day ([3]; human, in vivo): 0 ng/mL
concentration at 2 day ([3]; human, in vivo): 0 ng/mL
concentration at 8 day ([3]; human, in vivo, Subject B, Experiment #2, subject B skipped diphenhydramine on day 5): 2.92 ng/mL
concentration at 8 day ([3]; human, in vivo, Subject C, Experiment #2, subject C skipped Loperamide on day 2): 0 ng/mL
